pIC50: −log10 of the molar value. “And” between values parts separate entries of the source, which are not always exact repeats. Equal entries are not always repeated. “Also recorded” adds a separate entry of the source.
Tests used:
[1] = L-012 assay: inhibition of SIN-1 generated peroxynitrite induced luminescence/fluorescence of L-012; assay type: biochemical; details: 15 minute time point; average of three plates
Method: Luminol like compound “L-012” is a chemilumescent probe that is activated by the presence of a ROS and/or RNS such as peroxynitrite. In this assay L-012 was oxidized by the addition of 3-Morpholino-sydnonimine (“SIN-1”), a known peroxynitrite generator. The emitted fluorescence was directly proportional to the concentration of SIN-1. The compounds of the invention were then assessed for their ability to scavenge peroxynitrite by blocking the increase of peroxynitrite induced fluorescence. Concentrations of compound producing 50% inhibition of the fluorescence signal (IC50 values) were calculated by testing the compounds of the invention at various concentrations and averaging the IC50 of three plates.
The following solutions were added to white polystyrene, non-sterile 96-well plate (Costar #3912): 196 μL of 50 μM L-012; 2 μL of the test compound; and 24 μL of 500 mM SIN-1. Fresh stock of 50 μM L-012 in PBS pH 7.4 was made for each 96 well plate that was analyzed. The plates were read in a FlexStation3 (Molecular Devices) using the luminescent mode at 37° C. for 30 min, with a measurement every 30 seconds and an integration time of 100 msec.
Luminescence signal was recorded by the FlexStation3 kinetically at 37° C. for 30 minutes, with a measurement every 30 seconds and an integration time of 100 msec. The data in rows A and H were dropped from each plate to exclude the possibility of an ‘edge effect’. Thus, each test compound had 3 replicates per plate.

[2] = tested on: fentanyl analgesia (Hargreaves); experiment: Preservation of fentanyl analgesia in Hargreaves thermal plantar model; assay type: in vivo; details: rat; compound IV 15 min before fentanyl 25 μg/kg; FIG. 2
[3] = tested on: capsaicin-mediated hyperalgesia; experiment: Capsaicin-induced hyperalgesia; assay type: in vivo; details: rat; IV prior to intra-plantar capsaicin; FIG. 8
[4] = tested on: hyperalgesia following incisional surgery; experiment: Incisional hyperalgesia, dosing at conclusion of surgery; assay type: in vivo; details: rat; IV at conclusion of surgical incision; FIG. 9
[5] = tested on: hyperalgesia following incisional surgery; experiment: Established incisional hyperalgesia, dosing 24 hours after surgery; assay type: in vivo; details: rat; given 24 hours after surgical incision; FIG. 10
[6] = tested on: FCA induced tactile allodynia; experiment: FCA induced tactile allodynia (electronic von Frey); assay type: in vivo, rat
Method: Compound 2 was evaluated in the rat Freund's complete adjuvant (FCA) model of inflammatory pain. The rat Freund's complete adjuvant (FCA) intraplantar model of inflammatory pain produces behaviors similar to those observed in patients and has been widely used to assess novel pharmacological treatments (Lam et al., 2008, J Ethnopharmacol. 120:44-50). The positive control was celecoxib (TRC, Montreal), and the negative control was vehicle (0.5% methyl cellulose, in phosphate buffered saline). […] The Hargreaves apparatus was obtained from Ugo Basile, Italy. The Freund's complete adjuvant was obtained from Sigma, St. Louis, and the electronic von frey was obtained from Stoelting, Ill. For this assay, paw withdrawal latency to a thermal stimulus was assessed using a radiant heat source (Ugo Basile, Italy) aimed at the plantar surface of the left hind paw (Hargreaves test; […] Paw withdrawal thresholds to a non-noxious tactile stimulus was assessed using an electronic von Frey apparatus that presented an increasing mechanical force to the plantar surface of the hind paw. Paw volume was measured by displacement of water and assuming a tissue density equal to that of water. […] Celecoxib (30 mg/kg p.o.) served as the positive control. […] After induction of anesthesia, the injection site was prepared in a sterile manner and 100 μl of a 50% suspension of FCA injected. After injection, animals were weighed and allowed to recover before being returned to their home cages. Statistical significance was determined on untransformed data using a two-way analysis of variance (Graphpad Prism, NC). Significant main effects were analyzed further by subsequent Bonferronni post-hoc test. The level of significance was set at p<0.05. Data are shown as mean±S.E.M. (with an asterisk to denote significance as compared to vehicle treated controls).

[7] = tested on: ataxia (rotarod); experiment: Accelerating rotarod assay of ataxia (latency to fall); assay type: in vivo, rat; details: for Latency to fall: maximum 300 seconds, individual animals
Method: Compound 2 was evaluated in a rat accelerating rotarod model of ataxia. Ataxia is a common clinical problem with CNS-active compounds and can often confound interpretation of efficacy in preclinical pain models. The rotarod assay of ataxia has been widely used to assess the side-effect liability of novel pharmacological treatments (Jones & Roberts, 1968, J. Pharm. […] The positive control was haloperidol (Sigma, St. […] Male Sprague-Dawley Rats (Harlan, Ill.) were 250-300 g at time of dosing. Rotarod was obtained from IITC, CA. To examine the potential effects of Compound 2 on motor performance, rats were tested on an accelerating rotarod (IITC, Ca). […] Rats received two timed training trials (averaged to give the reported baseline) on the first day, then 24 hr later rats were administered Compound 2 (30, 100 and 300 mg/kg, p.o.), haloperidol (3 mg/kg, p.o.), the positive control, or vehicle. […] Statistical significance was determined on untransformed data using a two-way analysis of variance (Graphpad Prism, NC). Significant main effects were analyzed further by subsequent Bonferronni post-hoc test. The level of significance was set at p<0.05. Data are shown as mean±S.E.M. (with an asterisk to denote significance as compared to vehicle treated controls).

[8] = Oral pharmacokinetics (Tmax) in rats; details: rat, in vivo, given orally
[9] = tested on: Carrageenan-induced thermal hyperalgesia; experiment: Carrageenan-induced thermal hyperalgesia (Hargreaves); assay type: in vivo, rat; details: for Paw withdrawal latency: cut-off 40 s, individual animals

## CC1(C)SC(Nc2ccccc2O)=N[C@@H]1C(=O)O [Compound 2, (R)-2-(2-hydroxyphenylamino)-thiazoline-5,5-dimethyl-4-carboxylic acid]
[1]
  pIC50: 6.89
[2]
  preservation of fentanyl analgesia, Hargreaves thermal hyperalgesia model: dose-dependently preserves fentanyl analgesia
[3]
  effect on capsaicin-mediated hyperalgesia: inhibits capsaicin-mediated hyperalgesia
[4]
  development of hyperalgesia following incisional surgery: inhibits the development of hyperalgesia following incisional surgery
[5]
  reversal of hyperalgesia following incisional surgery: reverses hyperalgesia following incisional surgery
[6]; 30 (min post-dose), 30 mg/kg p.o. 24 hours post-FCA, 30 mg/kg
  Paw withdrawl threshold: 19.3 g and 32.6 g and 27.3 g and 30.2 g and 26.3 g and 19.5 g
[6]; 30 (min post-dose), 100 mg/kg p.o. 24 hours post-FCA, 100 mg/kg
  Paw withdrawl threshold: 28.6 g and 27.9 g and 19.3 g and 34.6 g and 31.6 g and 21 g
[6]; 60 (min post-dose), 3 mg/kg p.o. 24 hours post-FCA, 3 mg/kg
  Paw withdrawl threshold: 22 g and 16.5 g and 21.4 g and 15.7 g and 22.3 g and 18 g
[6]; 60 (min post-dose), 30 mg/kg p.o. 24 hours post-FCA, 30 mg/kg
  Paw withdrawl threshold: 24 g and 24.2 g and 26.5 g and 21.6 g and 27.4 g and 31.1 g
[6]; 60 (min post-dose), 100 mg/kg p.o. 24 hours post-FCA, 100 mg/kg
  Paw withdrawl threshold: 31.2 g and 27.5 g and 35.3 g and 29.1 g and 30.3 g and 34.6 g
[6]; BL(D1), 24 hours post-FCA before dosing, 3 mg/kg group, 3 mg/kg
  Paw withdrawl threshold: 20.5 g and 15.3 g and 18.5 g and 16.5 g and 17.3 g and 15.8 g
[6]; BL(D1), 24 hours post-FCA before dosing, 30 mg/kg group, 30 mg/kg
  Paw withdrawl threshold: 15 g and 19.2 g and 18.2 g and 22.5 g and 17.8 g and 16.5 g
[6]; BL(D1), 24 hours post-FCA before dosing, 100 mg/kg group, 100 mg/kg
  Paw withdrawl threshold: 12.8 g and 13.9 g and 16 g and 19.3 g and 23.51 g and 12.6 g
[6]; baseline (pre-FCA), 3 mg/kg group, individual rats, 3 mg/kg
  Paw withdrawl threshold: 36.1 g and 32.4 g and 35.8 g and 33.4 g and 34.4 g and 30.9 g
[6]; baseline (pre-FCA), 10 mg/kg group, individual rats, 10 mg/kg
  Paw withdrawl threshold: 28.6 g and 26.67 g and 37.9 g and 31.3 g and 39 g and 31.8 g
[6]; baseline (pre-FCA), 30 mg/kg group, individual rats, 30 mg/kg
  Paw withdrawl threshold: 33.2 g and 34.9 g (2×) and 36.6 g and 35.6 g and 33.4 g
[6]; baseline (pre-FCA), 100 mg/kg group, individual rats, 100 mg/kg
  Paw withdrawl threshold: 31.8 g and 26.6 g and 27.6 g and 33.33 g and 37.8 g and 31.9 g
[6]; baseline (prior to FCA), individual rats
  Paw withdrawal latency (s), FIG. 18B: 29.6 s (2×) and 32.5 s and 29.8 s and 27.5 s and 31.4 s
[6]; day 1, compound 2 25 mg/kg i.v. preemptive, individual rats, 25 mg/kg
  Paw withdrawal latency (s), FIG. 18B: 36.7 s and 26.7 s and 38.9 s and 25 s and 27 s and 29 s
[6]; day 3, compound 2 25 mg/kg i.v. preemptive, individual rats, 25 mg/kg
  Paw withdrawal latency (s), FIG. 18B: 29.8 s and 28 s and 30 s and 27.7 s and 23.5 s and 33.8 s
[6]; day 4, compound 2 25 mg/kg i.v. preemptive, individual rats, 25 mg/kg
  Paw withdrawal latency (s), FIG. 18B: 25 s and 27.23 s and 36.5 s and 31.3 s and 31.9 s and 24.3 s
[6]; rat, 3, 10, 30 and 100 mg/kg p.o. curative, 24 hours post-FCA, significant at 10, 30 and 100 mg/kg, 30 and 60 minutes
  reversal of FCA-induced tactile allodynia (finding in words): significant reversal of FCA induced tactile allodynia; also recorded: able to reverse established inflammatory tactile allodynia; also recorded: significantly reversed
[6]; rat, p.o. single dose 25 mg/kg preemptive
  FCA-induced tactile allodynia (finding in words): significantly prevented
[6]; rat, single dose 25 mg/kg i.v. preemptive, significant 24, 48 and 72 hours post-FCA, 25 mg/kg
  FCA tactile allodynia (finding in words): prevented the development; also recorded: significantly prevented
[7]; compound 2 30 mg/kg p.o., Baseline, 30 mg/kg
  Latency to fall: 70 sec and 108.5 sec and 72 sec and 68 sec (2×) and 52 sec and 49 sec and 60.5 sec and 48.5 sec and 47.5 sec (2×) and 97 sec
[7]; compound 2 30 mg/kg p.o., Post-Drug (1 hr), 30 mg/kg
  Latency to fall: 39 s and 99 s and 72 s and 94 s and 66 s and 81 s and 133 s and 120 s and 56 s and 115 s and 50 s and 70 s
[7]; compound 2 100 mg/kg p.o., Baseline, 100 mg/kg
  Latency to fall: 43.5 s and 75.5 s and 55 s and 63 s and 60.5 s and 73.5 s and 73 s and 72 s and 54.5 s and 54 s and 46.5 s and 53 s
[7]; compound 2 100 mg/kg p.o., Post-Drug (1 hr), 100 mg/kg
  Latency to fall: 86 sec and 64 sec and 45 sec (2×) and 111 sec and 91 sec and 221 sec and 72 sec (2×) and 66 sec and 20 sec and 199 sec
[7]; compound 2 300 mg/kg p.o., Baseline, 300 mg/kg
  Latency to fall: 84 sec and 76.5 sec and 57 sec and 86.5 sec (2×) and 81.5 sec and 79 sec and 71.5 sec and 61 sec and 97.5 sec and 89 sec
[7]; compound 2 300 mg/kg p.o., Post-Drug (1 hr), 300 mg/kg
  Latency to fall: 184 sec (2×) and 55 sec (2×) and 112 sec and 105 sec and 124 sec and 175 sec and 43 sec and 131 sec and 78 sec
[7]; rat, 30, 100 and 300 mg/kg p.o., 1 hr post-dosing
  latency to fall, accelerating rotarod (finding in words): did not significantly decrease latency to fall; also recorded: did not significantly reduce latency to fall
[8]
  Tmax: 1 h
[9]; compound 2 10 mg/kg p.o. preemptive (15 minutes prior to carrageenan), baseline prior to carrageenan (first line), 10 mg/kg
  Paw withdrawal latency: 20.94 s and 40 s and 25.09 s and 26.96 s and 13.66 s and 23.25 s
[9]; compound 2 10 mg/kg p.o. preemptive, 4 hours post carrageenan (second line), 10 mg/kg
  Paw withdrawal latency: 8.1 s and 5.07 s and 20.71 s and 12.18 s and 11.94 s and 9.38 s
[9]; compound 2 30 mg/kg p.o. preemptive, 4 hours post carrageenan (second line), 30 mg/kg
  Paw withdrawal latency: 11.57 s and 16.63 s and 6.81 s and 11 s and 32.38 s and 11.6 s
[9]; compound 2 30 mg/kg p.o. preemptive, baseline prior to carrageenan (first line), 30 mg/kg
  Paw withdrawal latency: 27.75 s and 15.78 s and 35.57 s and 23.26 s and 18.37 s and 25.78 s
[9]; rat, 10 and 30 mg/kg p.o. 15 minutes prior to carrageenan
  carrageenan-induced thermal hyperalgesia, preemptive (finding in words): did not significantly prevent
